{"source": "patent US11000568B2", "about": "“Means and methods for treating copper-related diseases” (HELMHOLTZ ZENTRUM MÜNCHEN—DEUTSCHES FORSCHUNGSZENTRUM FÜR …, priority 2015, dated 2021)", "key": {"[1]": {"tested_on": "HepG2 cells", "experiment": "Mitochondrial membrane potential staining of HepG2 cells", "assay_type": "cell-based", "settings": "500 μM MB", "method": "For immunofluorescence staining, 2×10^4 cells were incubated with either medium alone, 500 μM MB or 250 μM CCCP in black 96-well plates with clear glass bottom. Staining was done by 1.6 μM Hoechst 33342 (ex 360-400 nm, em 410-480 nm), 300 nM MitoTracker® red (ex 620-640 nm, em 650-760 nm), and 1 μM nonyl acridine orange (NAO, ex 460-490 nm, em 500-550 nm) for 40 minutes at 37° C. After a washing step, fluorescence was analyzed."}, "[2]": {"tested_on": "LPP−/− rats", "experiment": "Short-term in vivo treatment of LPP−/− rats", "design": "species or system rat", "method": "(§1) LPP rats were treated with MB either by daily i.p. injections for 3 or 5 consecutive days, or twice daily i.p. injections for 8 consecutive days at a dose of 150 mg/kg bw or 4 days via the drinking water with D-PA at a dose of 100 mg/kg bw/d or TETA at 480 mg/kg bw/d, respectively (Togashi et al., Hepatology 15, 82-87 (1992)). Based on a mean copper content of 250 μg/g w.w. in Atp7b−/− rat livers at the age of treatment start (Zischka et al., log. cit.), a LPP−/− rat liver of 8 g w.w. contains around 31.5 μmol copper. Single MB doses were chosen equimolar to this copper amount. […] Assuming 40 ml water intake per day for a rat weighing 250 g this translates to a dose of 480 mg/kg bw/d. With respect to the mean liver copper content in LPP−/− rats aged 85 days, the molar ratios of the chelators applied was MB 1:D-PA 4.3:TETA 17.4, respectively. For the intravenous MB application (150 mg/kg bw), catheters connected to a PinPort™ (Instech Laboratories, Inc., USA) were inserted in the femoral vein of the rat, fixed with non-absorbable sutures and subcutaneously tunneled and exteriorized through a skin incision made between the shoulders.\nFormalin-fixed, paraffin-embedded liver samples were cut into 4 μm-thick sections and either stained with hematoxylin and eosin for standard analyses or with Masson trichrome for analysis of fibrotic tissue. AST activity and bilirubin concentration in animal plasma or serum were measured with a Reflotron system (Roche).\nCopper in liver homogenates, cell lysates and mitochondrial preparations were analyzed by ICP-OES (Ciros Vision, SPECTRO Analytical Instruments GmbH) after wet ashing of samples with 65% nitric acid (Zischka et al., log. cit.).\nThe efficiency of a short-term MB treatment schedule was assessed in LPP−/− rats at the age of liver disease onset (85-90 days). Animals received MB (i.p.) either for 3 or 5 days or the clinically used copper chelators D-PA or TETA, which were orally administered for 4-days."}, "[3]": {"tested_on": "LPP+/− rats", "settings": "rat, in vivo", "method": "as §1"}, "[4]": {"tested_on": "diseased LPP−/− rats", "experiment": "Acute rescue regimen in diseased LPP−/− rats", "assay_type": "in vivo, rat"}, "[5]": {"tested_on": "LPP−/− rats", "experiment": "Repetitive MB treatment cycles in LPP−/− rats", "assay_type": "in vivo, rat", "text": "Due to the efficiency of the short-term MB treatment, we did a first test aiming at replacing daily chelation therapy by a regimen consisting of repetitive treatment cycles interrupted by longer observation cycles (FIG. 14). Five LPP−/− rats as well as five age- and sex-matched LPP+/− controls were included. One pair of rats was sacrificed at experimental days 1, 8, 29, 36 and 85, respectively. […] The four remaining LPP−/− rats were subjected to the first treatment cycle consisting of three daily MB injections (i.p.) for five days. […] Upon the second treatment cycle copper loads decreased again, but now down to 25% of the starting values, resulting in an unprecedented low copper load in LPP−/− mitochondria (day 36, pair 4). […] At experimental day 85, liver and mitochondrial copper loads had risen back to values before beginning of the treatment (day 1), associated with an impaired mitochondrial function (65% ATP production capacity) in comparison to its LPP+/− control (pair 5)."}, "[6]": {"experiment": "Stability analysis of MB by absorbance of oxazolone rings", "assay_type": "physicochemical", "settings": "time and/or temperature", "method": "(C) Stability analysis of metal free MB and Zn-loaded MB followed by absorbance measurements of their two metastable oxazolone rings (OxaA/ZnA at 394 nm and OxaB/ZnB at 340 nm)^57 at 37° C.\nHepG2 cells were kept in MEM with 2% FCS. […] Therefore, Zn-MB, generated by preparing a 20 mM MB solution and adding an equimolar concentration of Zn solution under pH control, was used in cell culture experiments."}, "[7]": {"molecular_target": "mitochondrial respiratory complex IV (Rattus norvegicus, UniProt P00406+P05503)", "sequence (P00406 whole entry, other chains not shown)": "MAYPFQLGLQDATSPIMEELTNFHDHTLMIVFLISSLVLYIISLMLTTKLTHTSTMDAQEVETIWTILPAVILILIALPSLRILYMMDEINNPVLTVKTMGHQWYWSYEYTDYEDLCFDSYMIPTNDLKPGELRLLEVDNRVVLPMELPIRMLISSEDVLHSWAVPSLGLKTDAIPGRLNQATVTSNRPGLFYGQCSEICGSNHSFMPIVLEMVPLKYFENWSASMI"}, "[8]": {"settings": "MB i.p. 3 or 5 days, D-PA or TETA 4 days"}, "[9]": {"settings": "i.v. MB daily, five consecutive days"}, "[10]": {"settings": "day 36, after second treatment cycle"}}, "note": "Entries after “also recorded” stand apart in the source; their conditions may differ. Numbered stars: 1 amine (or outer) side, 2 acyl side, 3 side chain; on linkers, the order of the positions; unused ones are H or OH. Bridge positions count the residues as written; N and C are the ends. Square brackets hold non-standard residues; d marks the D form. Peptide text beside a SMILES is read from it. * marks the point of attachment. X2 = O=C1OC(C2CCCN2[*:1])=NC1C(=S)NC(CO)C(=O)[*:2]; X1 = CC(C)CC(=O)C1=NC(C(=S)NCC(=O)*)C(=O)O1", "data": [{"smiles": "CSCCC(NC(=O)C1CSSCC(NC(=O)C(CO)NC(=O)CNC(=S)C2N=C(C(=O)CC(C)C)OC2=O)C(=O)NC(Cc2ccc(O)cc2)C(=O)N2CCCC2C2=NC(C(=O)O2)C(=S)NC(CO)C(=O)N1)C(=O)O", "note": "(stereo not drawn) [MB] (X1-SCY[X2]CM-OH; disulfide 2-5; configuration not given here)", "values": [{"measurement": "mitochondrial membrane potential", "setting": "[1]", "value": "reduced the mitochondrial membrane potential only partially; also recorded: only intermediate phases of mitochondrial membrane potential loss"}, {"measurement": "histopathological liver damage", "setting": "[2]; MB 150 mg/kg bw i.p. daily 3 or 5 days, D-PA 100 mg/kg bw/d or TETA 480 mg/kg bw/d oral 4 days", "value": "strong reduction of histopathological liver damage markers"}, {"measurement": "duration of normal serum AST on MB drug holiday", "setting": "[2]; MB five days, then drug holiday, zinc enriched food (1000 ppm)", "value": "at least two weeks"}, {"measurement": "body weight", "setting": "[2]; MB i.p. 3 or 5 days", "value": "regained body weight"}, {"measurement": "mitochondrial copper", "setting": "[2]; [8]", "value": "significant reduction at the mitochondrial copper level"}, {"measurement": "serum AST levels", "setting": "[2]; [8]", "value": "markedly decreased"}, {"measurement": "whole liver copper", "setting": "[2]; [8]", "value": "progressive reduction in total liver copper; also recorded: progressive but minor reduction at the whole liver copper level"}, {"measurement": "serum AST", "setting": "[2]; after 5 days of MB treatment, two onset and one diseased rat", "value": "< 200", "unit": "U/L"}, {"measurement": "severely impaired mitochondria (type 4) in isolates", "setting": "[2]; electron microscopy, short-term treatment", "value": "almost absent"}, {"measurement": "body weight", "setting": "[2]; i.v. MB 150 mg/kg bw daily, five consecutive days", "value": "All animals regained bodyweight"}, {"measurement": "AST or bilirubin levels", "setting": "[2]; [9]", "value": "levels returned to normal"}, {"measurement": "copper content of whole liver and purified mitochondria", "setting": "[2]; [9]", "value": "profound reduction in copper content"}, {"measurement": "mitochondrial copper load", "setting": "[2]; one week: 5× MB i.p., 5× MB i.v., 16× MB i.p.", "value": "drastically reduce the mitochondrial copper load"}, {"measurement": "ATP production of isolated mitochondria", "setting": "[2]; short term MB treatments", "value": "reverse this impairment"}, {"measurement": "body weight, liver copper concentration, serum AST and bilirubin", "setting": "[3]", "value": "remained within the physiological range"}, {"measurement": "signs of toxicity", "setting": "[3]", "value": "did not exhibit any signs of toxicity"}, {"measurement": "body weight", "setting": "[4]; 16 i.p. injections", "value": "regained weight"}, {"measurement": "copper values", "setting": "[4]; end of treatment regimen", "value": "exceptionally low copper values"}, {"measurement": "serum AST and bilirubin", "setting": "[4]; end of treatment regimen", "value": "normal serum AST and bilirubin"}, {"measurement": "weight regained", "setting": "[4]; moribund animal no. 3", "value": 29, "unit": "%"}, {"measurement": "survival", "setting": "[4]; two daily MB i.p. injections for one week (16 in total), four rats", "value": "All animals survived"}, {"measurement": "copper loads relative to starting values", "setting": "[5]; [10]", "value": 25, "unit": "%"}, {"measurement": "decoppering efficiency", "setting": "[5]; [10]", "value": 75, "unit": "%"}, {"measurement": "ATP production capacity vs LPP+/− control", "setting": "[5]; experimental day 85", "value": 65, "unit": "%"}, {"measurement": "reduction in copper load", "setting": "[5]; experimental day eight, after first cycle (three daily MB i.p. for five days)", "value": 40, "unit": "%"}, {"measurement": "health status during observation period", "setting": "[5]; further seven weeks after second cycle", "value": "stayed healthy"}, {"measurement": "mitochondrial and liver copper load", "setting": "[5]; recurrent treatment cycles", "value": "marked reduction in mitochondrial and liver copper load"}, {"measurement": "time/age to disease onset vs untreated LPP−/− rats", "setting": "[5]; recurrent treatment cycles", "value": "doubling of the age; also recorded: doubling of time before disease onset"}, {"measurement": "decay", "setting": "[6]", "value": "susceptible to time- and/or temperature-dependent decay"}, {"measurement": "toxicity to copper-dependent respiratory complex IV activity", "setting": "[7]", "value": "significantly less toxic than TTM"}]}]}
